Data: US12391691B2, “Synthesis of key intermediate of KRAS G12C inhibitor compound” (Amgen Inc., priority 2018, dated 2025)
≈ marks a conversion by molar mass, not a printed value. Values belong to the molecule of their own block, whether it stands above or below them.

Assays:
physchem = conditions: organic solvent or mixture, thermodynamic from solid
[1] = 5-day equilibrium solubility of M/P-Dione (ternary phase diagram); conditions: 2-MeTHF/n-heptane (1.4:1, v/v), RT, 5 days; for Solid XRPD: residual solid
[2] = #3: 20.2 mg M-Dione + 119.3 mg P-Dione
[3] = #4: 89.8 mg M-Dione + 90.3 mg P-Dione
[4] = #5: 121.1 mg M-Dione + 40.7 mg P-Dione
[5] = #6: 90.2 mg M-Dione + 19.5 mg P-Dione
[6] = #7: 41.6 mg M-Dione + 39.9 mg P-Dione
[7] = #8: 39.2 mg M-Dione + 120.3 mg P-Dione
[8] = #9: 119.1 mg M-Dione + 20.5 mg P-Dione

SMILES: O=C(O[C@H](C(=O)O)[C@H](OC(=O)c1ccccc1)C(=O)O)c1ccccc1 [DBTA, (+)-2,3-dibenzoyl-D-tartaric acid]
solubility at 5 days (physchem; 20 °C): 99.1 mg/mL (≈ 277 mM)
solubility at 5 days (physchem; 30 °C): 100 mg/mL (≈ 280 mM)
solubility at 5 days (physchem; 40 °C): 98.9 mg/mL (≈ 276 mM)
solubility at 5 days (physchem; 50 °C): 88 mg/mL (≈ 246 mM)
solubility at 5 days (physchem; 60 °C): 105 mg/mL (≈ 293 mM)
solubility at 5 days (physchem; 65 °C): 96.1 mg/mL (≈ 268 mM)
solubility at 5 days (physchem): ~100 mg/mL (≈ 279 mM)

Solid de [1, 2]: −69.2%
Supernatant [M]/[P] [1, 2]: 0.2
Supernatant de [1, 2]: −73.6%
Solid XRPD [1, 2]: A + RD
Solid de [1, 3]: 0.6%
Supernatant [M]/[P] [1, 3]: 0.9
Supernatant de [1, 3]: −3.9%
Solid de [1, 4]: 27.0%
Supernatant [M]/[P] [1, 4]: 33.4
Supernatant de [1, 4]: 94.2%
Solid XRPD [1, 4]: A + RC
Solid de [1, 5]: 35.0%
Supernatant [M]/[P] [1, 5]: 37.6
Supernatant de [1, 5]: 94.8%
Solid XRPD [1, 5]: A + RC
Solid de [1, 6]: 1.4%
Supernatant [M]/[P] [1, 6]: 1.1
Supernatant de [1, 6]: 4.4%
Solid de [1, 7]: −39.1%
Supernatant [M]/[P] [1, 7]: 0.2
Supernatant de [1, 7]: −72.8%
Solid XRPD [1, 7]: A + RD
Solid de [1, 8]: 54.9%
Supernatant [M]/[P] [1, 8]: 34.5
Supernatant de [1, 8]: 94.4%
Solid XRPD [1, 8]: A + RC
SMILES: Cc1ccnc(C(C)C)c1-n1c(=O)[nH]c(=O)c2cc(F)c(Cl)nc21 [M/P-Dione]
